Laboratory results taken from article PMC7894523 (Chemistry (Weinheim an Der Bergstrasse, Germany), 2020).

Molecular target: T1, 15N-labeled carbohydrate recognition domain (CRD) of DC-SIGN (Homo sapiens, UniProt Q9NNX6)
T1 sequence (Q9NNX6 250-404 limits assumed): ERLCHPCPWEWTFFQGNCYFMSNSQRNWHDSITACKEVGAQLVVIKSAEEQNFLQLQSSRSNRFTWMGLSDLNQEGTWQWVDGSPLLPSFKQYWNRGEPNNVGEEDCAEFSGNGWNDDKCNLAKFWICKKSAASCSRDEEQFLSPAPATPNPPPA
Test: 1H-15N HSQC titration, chemical shift perturbation
Type: binding

Compound CC(=O)N[C@H]1[C@H](O[C@H]2[C@H](O[C@@H]3O[C@@H](C)[C@@H](O)[C@@H](O)[C@@H]3O)[C@@H](NC(C)=O)[C@H](OCCCCCN)O[C@@H]2CO)O[C@H](CO)[C@H](O)[C@@H]1O [compound 12, LDN-F] has a Kd of 1500 ± 400 µM.
